pEC50, pIC50: −log10 of the molar value.
Columns and labels:
[1] = system: acetylation of chromatin at H3K18 (catalyzed by p300 and CBP) in HCT-116 cells; test: H3K18Ac MSD cellular assay; assay type: cell-based; details: 2 hr treatment, average of at least 2 replicate titrations
Experimental: Select compounds were also evaluated in a H3K18Ac MSD cellular assay that measures the ability of compounds to inhibit the acetylation of chromatin at H3K18, a process catalyzed by p300 and CBP. In a typical experiment the p300 HAT inhibitory activity inside cells of the compounds described herein was determined in accordance with the following experimental method. 20 k HCT-116 cells per well are plated in 75 μL RPMI+10% FBS media the night before treatment. Compounds plated in DMSO at 4× final concentration are resuspended in 30 μL RPMI+10% FBS, then 25 μL is combined with corresponding wells containing cells. Treated cells are incubated for 2 hr at 37° C., then lysed in 500 μL final volume and frozen at −80° C. MSD plates (Meso Scale Discovery) are coated overnight at 4° C. with 60 μL 1:500α-total histone antibody (Millipore MAB3422) in PBS. Plates are then blocked with 5% BSA in TBST shaking at RT for 1 hr, washed, and 30 μL lysate added to each well for 2 hr shaking at RT. Plates are washed and 25 μL 1:216α-H3K18ac antibody (CST 9675) in PBS added, then incubated for 1 hr shaking at RT. Plates are washed again, then 25 μL 1:1000 Sulfo-Tag goat a-rabbit antibody (Meso Scale Discovery R32Ab-1) in PBS is added for 1 hr shaking at RT. Plates are washed once more, then 150 μL 1× Read Buffer (MSD #R92TD-3) is added to all wells and read on MSD SECTOR Imager 2400 using the conventional read setup.

[2] = molecular target: p300 HAT domain (residues 1287-1666) (Homo sapiens (Human), UniProt Q09472); test: p300 HAT SPA assay (scintillation proximity assay, acetylation of biotinylated H3(1-21) peptide); assay type: biochemical; details: p300 HAT domain; average of at least 2 replicate titrations; read-out: P300 HAT SPA IC50
Chain of p300 HAT domain (residues 1287-1666) (Q09472 1287-1666): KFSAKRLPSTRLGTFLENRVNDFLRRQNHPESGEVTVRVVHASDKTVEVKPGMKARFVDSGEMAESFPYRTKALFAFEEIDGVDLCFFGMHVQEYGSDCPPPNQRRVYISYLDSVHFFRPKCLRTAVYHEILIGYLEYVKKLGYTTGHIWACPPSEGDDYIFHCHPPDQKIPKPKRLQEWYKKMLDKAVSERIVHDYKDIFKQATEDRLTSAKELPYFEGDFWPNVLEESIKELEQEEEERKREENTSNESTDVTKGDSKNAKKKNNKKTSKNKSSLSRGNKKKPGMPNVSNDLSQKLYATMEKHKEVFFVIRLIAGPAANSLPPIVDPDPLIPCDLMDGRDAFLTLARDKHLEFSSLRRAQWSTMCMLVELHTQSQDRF
Outline: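 Purified p300 HAT domain reaction transferred to streptavidin plates to capture biotinylated H3(1-21) peptide, incubated 1.5 hr at RT, and read by scintillation proximity. IC50 values derived from concentration-response data.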

full length p300 = full length p300 (Homo sapiens (Human), UniProt Q09472); test: full length p300 SPA assay; assay type: biochemical; details: average of at least 2 replicate titrations, read-out: FL P300 IC50
Chain of full length p300 (Q09472 whole entry): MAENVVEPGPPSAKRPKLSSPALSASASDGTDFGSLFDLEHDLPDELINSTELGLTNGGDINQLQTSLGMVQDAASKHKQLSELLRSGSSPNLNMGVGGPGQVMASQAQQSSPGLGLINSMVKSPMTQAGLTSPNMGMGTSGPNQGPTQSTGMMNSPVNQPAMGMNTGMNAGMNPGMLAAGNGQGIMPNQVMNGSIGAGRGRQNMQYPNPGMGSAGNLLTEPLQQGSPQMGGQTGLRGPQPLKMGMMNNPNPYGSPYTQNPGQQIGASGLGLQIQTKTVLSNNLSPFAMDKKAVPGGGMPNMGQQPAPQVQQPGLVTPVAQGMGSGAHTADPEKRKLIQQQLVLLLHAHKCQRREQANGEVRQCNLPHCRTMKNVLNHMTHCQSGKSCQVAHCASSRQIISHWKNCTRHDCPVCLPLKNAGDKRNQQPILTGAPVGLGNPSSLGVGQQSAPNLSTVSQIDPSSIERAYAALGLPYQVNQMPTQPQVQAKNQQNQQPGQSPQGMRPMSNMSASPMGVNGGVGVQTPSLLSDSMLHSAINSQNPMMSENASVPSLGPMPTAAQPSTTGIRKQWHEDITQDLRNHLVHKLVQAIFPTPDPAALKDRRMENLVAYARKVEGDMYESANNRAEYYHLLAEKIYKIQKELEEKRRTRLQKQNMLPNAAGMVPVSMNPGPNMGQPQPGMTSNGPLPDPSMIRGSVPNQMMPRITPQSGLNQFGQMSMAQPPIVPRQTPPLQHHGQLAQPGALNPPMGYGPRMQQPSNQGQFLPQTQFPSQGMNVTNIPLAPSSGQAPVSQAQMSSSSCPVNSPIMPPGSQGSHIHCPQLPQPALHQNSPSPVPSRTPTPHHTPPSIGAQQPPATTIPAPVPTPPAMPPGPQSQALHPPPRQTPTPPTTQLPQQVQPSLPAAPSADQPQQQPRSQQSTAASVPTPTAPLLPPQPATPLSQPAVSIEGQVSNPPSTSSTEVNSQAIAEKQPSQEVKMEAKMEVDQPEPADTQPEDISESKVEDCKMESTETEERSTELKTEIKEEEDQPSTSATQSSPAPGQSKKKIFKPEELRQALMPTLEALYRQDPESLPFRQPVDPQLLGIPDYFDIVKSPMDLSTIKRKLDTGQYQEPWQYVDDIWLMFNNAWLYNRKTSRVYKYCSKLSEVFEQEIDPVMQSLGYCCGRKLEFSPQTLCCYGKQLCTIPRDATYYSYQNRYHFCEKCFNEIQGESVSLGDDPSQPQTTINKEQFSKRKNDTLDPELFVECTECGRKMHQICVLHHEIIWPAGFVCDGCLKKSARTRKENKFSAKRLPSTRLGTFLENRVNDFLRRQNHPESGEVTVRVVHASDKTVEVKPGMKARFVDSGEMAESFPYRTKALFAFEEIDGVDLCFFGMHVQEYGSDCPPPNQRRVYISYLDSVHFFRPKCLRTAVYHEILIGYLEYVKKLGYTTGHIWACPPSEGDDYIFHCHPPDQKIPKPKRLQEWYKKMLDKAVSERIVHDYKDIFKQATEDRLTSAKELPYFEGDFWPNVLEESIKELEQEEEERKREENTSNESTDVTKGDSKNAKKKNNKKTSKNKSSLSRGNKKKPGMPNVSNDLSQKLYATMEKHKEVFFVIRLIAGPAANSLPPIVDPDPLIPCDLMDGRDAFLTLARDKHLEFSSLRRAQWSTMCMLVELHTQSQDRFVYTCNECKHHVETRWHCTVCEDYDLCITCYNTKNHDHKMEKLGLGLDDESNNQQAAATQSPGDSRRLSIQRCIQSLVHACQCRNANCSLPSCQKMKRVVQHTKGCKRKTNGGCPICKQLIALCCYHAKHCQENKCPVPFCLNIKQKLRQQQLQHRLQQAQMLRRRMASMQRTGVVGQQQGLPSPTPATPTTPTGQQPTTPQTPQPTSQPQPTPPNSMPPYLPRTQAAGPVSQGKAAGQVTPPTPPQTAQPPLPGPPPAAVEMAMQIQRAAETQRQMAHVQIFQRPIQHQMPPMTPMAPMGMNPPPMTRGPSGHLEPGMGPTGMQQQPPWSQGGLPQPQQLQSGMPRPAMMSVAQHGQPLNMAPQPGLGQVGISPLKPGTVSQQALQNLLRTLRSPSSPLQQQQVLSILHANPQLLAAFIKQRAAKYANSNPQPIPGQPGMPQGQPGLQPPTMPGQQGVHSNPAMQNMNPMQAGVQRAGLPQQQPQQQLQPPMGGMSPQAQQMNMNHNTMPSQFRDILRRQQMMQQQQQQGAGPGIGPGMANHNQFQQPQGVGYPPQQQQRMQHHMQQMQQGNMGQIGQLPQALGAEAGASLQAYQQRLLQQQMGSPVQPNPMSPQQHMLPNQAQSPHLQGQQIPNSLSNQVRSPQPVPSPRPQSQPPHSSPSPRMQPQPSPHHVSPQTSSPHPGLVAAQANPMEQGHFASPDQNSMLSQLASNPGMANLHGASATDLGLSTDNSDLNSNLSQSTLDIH
Experimental: Reactions were initiated with 12.5 μL 2 μM biotinylated H3(1-21) peptide (New England Peptide) and run for 1 hr at RT, then quenched with 20 μL stop solution (200 mM Tris pH 8.0, 200 mM EDTA, 2M NaCl, 160 μM anacardic acid). 35 μL of the reaction volume was transferred to a 384-well streptavidin FlashPlate (PerkinElmer) using a Bravo liquid handler (Velocity 11) and incubated for 1.5 hr at RT. Plates were aspirated, washed with 95 μL wash buffer (15 mM Tris pH 8.5, 0.069 μM Brij-35), aspirated, sealed, and scintillation counts read on a Topcount (PerkinElmer). Data were analyzed in Genedata to determine inhibitor IC50 values.
The full length p300 SPA assay was run following the same protocol as p300 HAT SPA assay, but used 6 nM purified full length p300 (purchased from Active Motif) in place of the purified p300-HAT domain.

Compound	pEC50 ([1]; Homo sapiens, HCT-116, 2 h)	pIC50 [2]	pIC50 (full length p300)	pEC50 [1]
O=C(c1c[nH]c2ccccc12)C(NCCc1ccc(Cl)cc1)c1cccnc1 (racemic) [43 Racemic, (rac)-2-((4-chlorophenethyl)amino)-1-(1H-indol-3-yl)-2-(pyridin-3-yl)ethan-1-one]	5.41	5.38	6.84	
NS(=O)(=O)c1ccc(CCNC(C(=O)c2c[nH]c3c(Cl)cccc23)c2ccccc2)cc1 (single isomer, unassigned) [15 Isomer 2]	6.39	5.83	7.09	
O=C(c1c[nH]c2ccccc12)C(NCCc1ccc(F)cc1)c1ccccc1 (single isomer, unassigned) [22 Isomer 2]	5.77	5.63	7.68	
NS(=O)(=O)c1ccc(CCNC(C(=O)c2c[nH]c3cnccc23)c2ccccc2)cc1 (single isomer, unassigned) [32 Isomer 1]	5.44	5.84	6.99	
Cc1nc(C(=O)C(NCCc2ccc(Cl)cc2)c2ccccc2)c2ccccn12 (single isomer, unassigned) [45 Isomer 1]	4.87	5.26	6.66	
O=C(c1cnc2ccccn12)C(NCCc1ccc(Cl)cc1)c1ccccc1 (single isomer, unassigned) [46 Isomer 2]	4.53	5.18	6.55	
CN(C)C(=O)CCc1ccc2c(C(=O)C(NCCc3ccc(F)cc3)c3ccccc3)c[nH]c2c1 (single isomer, unassigned) [49 Isomer 2]	6.12	5.66	7.26	
COc1ccc2c(C(=O)C(NCCc3ccc(S(N)(=O)=O)cc3)c3ccccc3)c[nH]c2c1 (single isomer, unassigned) [51 Isomer 2]	6.49	5.89	7.59	
COc1ccc2c(C(=O)C(NCCc3ccc(Cl)cc3)c3ccccc3)c[nH]c2c1 (single isomer, unassigned) [60 Isomer 2]	6.26	5.96	6.75	
O=C(c1c[nH]c2cc(OCc3ccccc3)ccc12)C(NCCc1ccc(F)cc1)c1ccccc1 (single isomer, unassigned) [61 Isomer 2]	6.08	5.97	7.30	
COc1ccc(CCNC(C(=O)c2c[nH]c3c(C)cccc23)c2ccccc2)cc1 (single isomer, unassigned) [80 Isomer 2]	6.09	5.99	7.47	
O=C(c1c[nH]c2cc(-c3cccnc3)ccc12)C(NCCc1ccc(F)cc1)c1ccccc1 (single isomer, unassigned) [81 Isomer 2]	6.71	5.94	7.84	
O=C(c1c[nH]c2cc(-c3ccncc3)ccc12)C(NCCc1ccc(F)cc1)c1ccccc1 (single isomer, unassigned) [82 Isomer 2]		6.06	7.74	6.89
O=C(c1c[nH]c2cc(-n3cccn3)ccc12)C(NCCc1ccc(F)cc1)c1ccccc1 (single isomer, unassigned) [118 Isomer 2]	6.05	5.58	7.09	
O=C(O)c1ccc(CCNC(C(=O)c2c[nH]c3ccccc23)c2ccccc2)cc1 (single isomer, unassigned) [132 Isomer 1]	5.35	5.74	7.20	
NC(=O)c1ccc(CCNC(C(=O)c2c[nH]c3ccccc23)c2ccccc2)cc1 (single isomer, unassigned) [133 Isomer 2]	5.84	5.67	7.00	
CNC(=O)c1ccc(CCNC(C(=O)c2c[nH]c3ccccc23)c2ccccc2)cc1 (single isomer, unassigned) [134 Isomer 2]	5.80	5.29	6.82	
CN(C)C(=O)c1ccc2c(C(=O)C(NCCc3ccc(Cl)cc3Cl)c3ccccc3)c[nH]c2c1 (single isomer, unassigned) [152 Isomer 2]	6.49	5.90	7.54	
N#Cc1ccc(CCNC(C(=O)c2c[nH]c3cc(C(=O)O)ccc23)c2ccccc2)cc1 (single isomer, unassigned) [155 Isomer 1]	4.78	5.65	7.11	

Now those with a higher pIC50 [2], led by results:

pEC50 ([1]; Homo sapiens, HCT-116, 2 h)	pIC50 [2]	pIC50 (full length p300)	pEC50 [1]	Compound
7.04	6.15	7.00		O=C(c1c[nH]c2ccccc12)C(NCCc1ccc(C(F)(F)F)cc1)c1ccccc1 (single isomer, unassigned) [21 Isomer 1]
6.28	6.11	7.56		CN(C)c1ccc(CCNC(C(=O)c2c[nH]c3ccccc23)c2ccccc2)cc1 (single isomer, unassigned) [39 Isomer 2]
6.47	6.42	8.06		CN(C)C(=O)Cc1ccc2c(C(=O)C(NCCc3ccc(C#N)cc3)c3ccccc3)c[nH]c2c1 (single isomer, unassigned) [63 Isomer 1]
7.36	7.68	7.75		CCNC(=O)c1ccc2c(C(=O)C(NCC(C)c3ccc(C#N)cc3)c3ccccc3)cnn2c1 (single isomer, unassigned) [69 Isomer 4]
7.71	8.06	9.15		CCNC(=O)c1ccc2c(C(=O)C(NCC(C)c3ccc(C#N)cc3)c3ccccc3)c[nH]c2c1 (single isomer, unassigned) [75 Isomer 4]
6.98	6.15	7.96		Cn1cc(-c2ccc3c(C(=O)C(NCCc4ccc(F)cc4)c4ccccc4)c[nH]c3c2)cn1 (single isomer, unassigned) [78 Isomer 2]
6.95	6.70	7.94		CNC(=O)Cn1cc(-c2ccc3c(C(=O)C(NCCc4ccc(Cl)cc4)c4ccccc4)c[nH]c3c2)cn1 (single isomer, unassigned) [87 Isomer 2]
7.37	8.03	9.09		CC(CNC(C(=O)c1cnn2cc(-c3cnn(C)c3)ccc12)c1ccccc1)c1ccc(C#N)cc1 (single isomer, unassigned) [102 Isomer 4]
6.79	6.08	7.85		O=C(c1c[nH]c2cc(-n3ccnc3)ccc12)C(NCCc1ccc(F)cc1)c1ccccc1 (single isomer, unassigned) [117 Isomer 1]
6.67	6.09	7.91		CN1CCN(c2ccc3c(C(=O)C(NCCc4ccc(F)cc4)c4ccccc4)c[nH]c3c2)CC1 (single isomer, unassigned) [123 Isomer 2]
6.81	7.44	8.66		CN1CCC(Oc2ccc3c(C(=O)C(NCCc4ccc(C#N)cc4)c4ccccc4)c[nH]c3c2)CC1 (single isomer, unassigned) [126 Isomer 2]
	7.59	7.85	7.44	CCNC(=O)c1ccc2c(C(=O)[C@@H](NCCc3ccc(C#N)cc3)c3ccccc3)c[nH]c2c1 (single isomer, unassigned) [146 Isomer 2]
7.33	7.77	> 8.70		CNC(=O)c1ccc2c(C(=O)C(NCCc3ccc(C#N)cc3)c3ccccc3)c[nH]c2c1 (single isomer, unassigned) [156 Isomer 2]

— US11414384B2, “P300/CBP hat inhibitors” (Constellation Pharmaceuticals, Inc., priority 2018, dated 2022)
